This is an account of results in US8546348B2, “Upregulation of opioid receptors for management” (The Board of Regents of the University of Texas System, priority 2003, dated 2013).

The structures appear in SMILES notation. Several values for one entry are separate records, joined by “and”; a condition that tells them apart may be missing. Equal values may be shown once. Read-outs that look alike come from different tables or passages of the source.

The subject of test [1] is spared nerve injury (SNI) rats. The test is described as follows: Mechanical allodynia (von Frey) in SNI rats treated with rAAV-δOR, intrathecal deltorphin or morphine. It counts as in vivo, rat. The protocol:
Similar method as described before was used to induce inflammation To produce the nerve-injury in the rat paw, spared nerve injury (SNI) in rats was generated by transecting the sural and common peroneal sciatic nerves in the left rat leg while leaving the tibal nerve intact. To induce inflammation in the trigeminal nerve innervated areas, rats were lightly anesthetized with pentobarbital. CFA (10-50 μl) was injected into the rat temporomandibular joint (TMJ) 3-4 weeks after infection of rAAV-dOR. Behavioral experiments were performed 5-14 days after the CFA injection. To induce spare nerve injury in the trigeminal nerve, the infraorbital nerve branch of the maxillary nerve was ligated and the ophthalmic and mandibular nerves were left intact.
δ-opioid receptor expression was enhanced in dorsal root ganglia (DRGs) by injecting rAAV-dOR into the ganglion or into the sciatic nerve or by injecting dOR-FLAG DNA intrathecally. The δ-OR receptor expression was enhanced in the trigeminal ganglon by injecting rAAV-dOR into the trigeminal ganglion or into the maxillary nerve.
Three to four weeks later, the effects of morphine or other analgesic drugs on mechanical allodynia in SNI rats were determined behaviorally. Rat hindpaw withdrawal (PW) thresholds in response to stimulation of Von Frey filaments were measured. Each test consisted of applications of a series of von Frey filaments (ranging from 0.4 to 15.0 g) to the lateral plantar surface of the tested paw until it withdrew or for a maximum of 60 s. To avoid injury during tests, the cutoff strength of the von Frey filament was 15 g. The up and down method described by Chaplan et al. (12) was used to determine the PW threshold. Mechanical threshold or the maximum possible effect (MPE), i.e., ((test−min)/(max−min)]×100%, was used to calculate morphine mechanical analgesic effects.

For test [2], the system named is injured rats (sciatic nerve ligation). The note with it: Kabli and Cahill; cited from earlier work.
Test [3] has as its system rats (thermal nociceptive responses). As to the kind of experiment: Paw withdrawal latency to radiant heat, s.c. morphine, rats with rAAV injected into L4-L5 ganglia. Conditions: 4 mg/kg morphine, non-CFA rats. Type of test: in vivo, rat.
For test [4], the system named is rats (inflammatory pain, CFA). The test is described as follows: Morphine antinociception (MPE, radiant heat) in CFA rats after DRG or sciatic nerve injection of rAAV. It counts as in vivo, rat. The note with it: s.c. morphine, rAAV injected into DRGs.
Test [5] relates to rats (thermal hyperalgesia, CFA). As to the kind of experiment: Paw withdrawal latency to radiant heat, intrathecal morphine, rats with rAAV injected into the sciatic nerve. Conditions: rat, in vivo.
The subject of test [6] is spared nerve injury (SNI) rats. The test is described as follows: Mechanical allodynia (von Frey) in spared nerve injury rats, intrathecal morphine, rAAV-μOR. Type of test: in vivo, rat. The note with it: intrathecal 1-10 μg, SNI rats without rAAV.
For test [7], the system named is high-threshold voltage-dependent Ca^2+ channels in DRG neurons. The test is described as follows: Perforated patch recording of DAMGO block of Ba2+ currents in cultured DRG neurons. The note with it: for IC50: read-out: apparent affinity for DAMGO inhibition (IC50). It counts as cell-based, rat. The protocol: Cells were superfused (2 ml/min) at 23-24° C. with external solution containing 130 mM tetraethylammonium (“TEA”) chloride, 5 mM CsCl, 1.5 mM BaCl2, 1 mM MgCl2, 10 mM Hepes, and 10 mM glucose (pH 7.2, adjusted with TEA-OH; osmolarity, 300 mosM). Patch electrodes (resistance, 2.2-3.5 MΩ) were filled with internal solution containing 100 mM CsMeSO3, 40 mM CsCl, 10 mM Hepes, and 300 μg/ml amphotericin B (pH=7.3 adjusted with CsOH, 320 mosM). The currents were filtered at 2-5 kHz and sampled at 100 μs per point. [D-Ala^2,N-MePhe^4,Gly^5-ol]enkephalin (“DAMGO”) was pressure delivered to the recorded cells through a drug applicator (8).
All data were expressed as mean±SEM. Paw withdrawal latencies obtained from different rats were averaged. Changes before and after morphine treatment within one rat group were analyzed with one-way ANOVA followed by post hoc Newman-Keuls analysis. Antinociceptive responses were expressed as maximum possible effect (“MPE”) by using the relation MPE=(postdrug PWL−baseline PWL)/(cutoff PWL−baseline PWL)×100. Dose-response curves were plotted as MPE vs. dose and fitted with the logistic equation. The doses estimated to produce 50% MPE, A50, and 95% confidence intervals were determined. The dose-response curves for DAMGO in current measurements were fitted with the Hill equation, i.e., response=(max−min)×[IC50/(IC50^n+dose^n)]+min, where max and min are maximal and minimal responses, IC50 is the dose for 50% of the block, and n is the Hill coefficient. The 95% confidence band analysis was used to evaluate the significance of the change in the IC50 and maximal block. To assess the significance of changes between two means, the Student's t test was used. A p<0.05 was considered significant.
It is well established that μ-opioids inhibit high-threshold voltage-dependent Ca^2+ currents in DRG neurons. […] Seven days after the infection, perforated patch whole-cell recordings were performed on the cells. External Ca^2+ was replaced by Ba^2+ to avoid rapid rundown of current responses.

In the case of `CC(C)[C@H](NC(=O)[C@H](CCC(=O)O)NC(=O)[C@H](Cc1ccccc1)NC(=O)[C@@H](C)NC(=O)[C@@H](N)Cc1ccc(O)cc1)C(=O)N[C@H](C(=O)NCC(=O)O)C(C)C` [deltorphin], the “reduction of allodynic responses” value in test [1] (SNI rats) is “rather ineffective”; in test [1] (SNI rats, listed as Deltorphin) it was “ineffective”; in test [1] (rAAV-δOR treated SNI rats) it was “became effective”. For the same molecule, the “time for which the drug is effective in reducing allodynic responses” value in test [2] is given as 21 days.
Take `CN1CC[C@]23c4c5ccc(O)c4O[C@H]2[C@@H](O)C=C[C@H]3[C@H]1C5` [morphine]: in test [3], the “time at which antinociceptive effects reached a maximum” value lay within 30 to 40 min and the “time in which antinociceptive effects dissipated” value was 80 to 90 min. In test [4], the “time at which MPEs peaked” value lay in the range of 30 to 40 min; the “time within which MPEs dissipated” value is 100 to 120 min and 100 min. Also, in test [5], the “time after which the effect dissipated” value was 50 min and the “time at which MPE peaked” value was in the range of 15 to 20 min. Besides, the “relief of mechanical allodynia” value in test [6] is on record as “not effective”. Moreover, in test [2], the “time for which the drug is effective in reducing allodynic responses” value is 14 days.
What is called IC50 is the midpoint of a concentration-inhibition curve. As for `C[C@@H](NC(=O)[C@@H](N)Cc1ccc(O)cc1)C(=O)NCC(=O)N(C)[C@@H](Cc1ccccc1)C(=O)NCCO` [DAMGO, [D-Ala^2,N-MePhe^4,Gly^5-ol]enkephalin], the IC50 turned out to be 0.53 ± 0.03 µM in test [7] (rAAV-EGFP cells), 0.17 ± 0.06 µM in test [7] (rAAV-μOR cells) and 0.64 ± 0.19 µM in test [7] (untreated cells). Besides, the results for the “percentage of cells responded to DAMGO inhibition” value in test [7] (rAAV-EGFP-treated cells), in test [7] (rAAV-μOR-treated DRG neurons) and in test [7] (untreated cells) were 54.5%, 89.2% and 57.1%, respectively. Further, the “maximal block of Ba2+ currents” value in test [7] (rAAV-μOR cells, Hill fit) was 31.63% and 31.63±0.03%.
